Experimental findings from patent US10835575B2, “Compositions and methods for treating disease using Salmonella T3SS effector protein (SipA)” (University of Massachusetts, priority 2013, dated 2020) are described below.

For assay [1], the system named is CT26 tumors. Put plainly: Subcutaneous CT26 murine colon cancer model, tumor volume. It is filed as in vivo, Balb/c mice. As to conditions: doxorubicin alone, 10 mg/kg. An excerpt: (§1) FIG. 6A-D. The combined effects of SipA-AuNPs and exogenous doxorubicin prevent tumor growth. (FIG. 6A) Balb/c mice bearing subcutaneous CT26 tumors (mean tumor volumes of approximately 0.5 mm^3) received IP treatments for 15 days as described in the Materials and Methods section, (▪) Untreated, (●) AuNP alone, (▴A) SipA-AuNPs, (♦) Doxorubicin or (□) SipA-AuNP plus Doxorubicin (DOX). SipA-AuNPs conjugates improve the efficacy of doxorubicin. (*P<0.0001). (FIG. 6B) Accumulation of gold nanoparticles in the tumors shown in (FIG. 6A) was evaluated by SEM and X-ray microanalysis. Color intensity represents tumor penetration. The sections of tumor were imaged for X-ray analysis and X-ray mapping as described in the Materials and Methods section. (FIG. 6C) P-gp expression in the tumors shown in (FIG. 6A) was evaluated by western blot. Tumors were homogenized and lysed. Whole cell lysates were normalized for protein levels and probed for P-gp. Levels of P-gp were quantified by densitometry and presented on the bar cart. Densitometry was performed using ImageJ and results are presented as relative to the untreated cells. […] Levels of P-gp were quantified by densitometry and presented on the bar graph. […]
The subcutaneous tumor model. […] Tumor size was measured using calipers and volumes were estimated using the formula 0.5×length×(width)^2. […]

For assay [2], the system named is P-gp. The assay can be described thus: P-gp expression in HCT8 cell monolayers, Western blot. It is filed as cell-based, human. On the procedure:
FIG. 5A-B. SipA-AuNPs decrease the expression of P-gp at a SipA dose nearly 500 times lower than free SipA. (FIG. 5A) Schematic presentation of P-gp knockdown mechanism via SipA-AuNP. (FIG. 5B) HCT8 cell monolayers were left untreated (−), exposed to […] 160 μg/ml of purified SipA, AuNP alone or AuNP-SipA (0.72 μg/ml of SipA).
(§2) Cell culture. The human intestinal adenocarcinoma cell line HCT8 were maintained in accordance with (8). The human breast adenocarcinoma cell line MCF-7, the human bladder transitional cell carcinoma cell line UM-UC-3, and the CT26 murine colon carcinoma cell line, were purchased from ATCC and were all maintained in DMEM F-12 containing a 10% fetal bovine serum, 100 U/ml penicillin, and 10 μg/ml streptomycin at 37° C. in 90% relative humidity and 5% CO2.
Cell lysates and Western Blot analysis. Cell lysates were harvested from S. Typhimurium-infected HCT8 cells, as previously described (8). Proteins were normalized to 30 μg, separated by SDS/PAGE (4-12% gradient; Biorad, Hercules, Calif.), and transferred to nitrocellulose (Bio-Rad; 0.45μ membrane). Immuno-blots were performed using the murine monoclonal P-gp C219 antibody (calbiochem) diluted at 1:100. […]
(Immunoblotting shows a protein as a band on a membrane.)

In assay [3] the test system is P-gp. Put plainly: P-gp expression in UM-UC-3 bladder carcinoma cells, Western blot. Format: cell-based, human. As to conditions: UM-UC-3 cells, 80 or 160 μg/ml purified SipA, 3 h. On the procedure:
(§3) FIG. 3A-B. SipA-induced, dose-dependent P-gp down-regulation is conserved in other cancer cell types. (FIG. 3A) MCF-7 breast adenocarcinoma cells were left untreated (−) or exposed to 80 μg/ml or 160 μg/ml of purified SipA for 3 h. Normalized whole cell lysates were then probed for P-gp and GAPDH. Densitometry was analyzed by ImageJ and presented as relative to the untreated cells. (FIG. 3B) UM-UC-3 human bladder carcinoma cells were left untreated or exposed to 80 μg/ml or 160 μg/ml of purified SipA for 3 h, and then probed and analyzed as in (FIG. 3A).
as §2
(§4) Cell lysates and Western Blot analysis. Cell lysates were harvested from S. Typhimurium-infected HCT8 cells, as previously described (8). Proteins were normalized to 30 μg, separated by SDS/PAGE (4-12% gradient; Biorad, Hercules, Calif.), and transferred to nitrocellulose (Bio-Rad; 0.45μ membrane). […]

For assay [4], the system named is PERP. The assay can be described thus: PERP protein expression in human colonic cancers in vitro. It is filed as cell-based. From the text: (§5) In a further embodiment, SipA increases the level of expression of PERP in cells, PERP is a tetraspan membrane protein originally identified as a transcriptional target of the p53 tumor suppressor (10). P53 regulates the cell cycle and, thus, functions as a tumor suppressor that is involved in preventing cancer. As such, p53 has been described as “the guardian of the genome”, referring to its role in conserving stability by preventing genome mutation. Fundamental to the tumor-suppressor role of p53 is the ability to engage in apoptosis. […] Studies investigating the interaction of SipA with the surface epithelial cells have been carried out (13, 14). The inventors used a split-ubiquitin based yeast-two hybrid analysis system (Dualsystems Biotech) with full length SipA as bait and a human cancer colon mRNA-based library as prey, to identify PERP, a p53 induced apoptotic effector, as a SipA interacting partner. […] While an understanding of the mechanism is not necessary, and without limiting the invention to any particular mechanism, and although the precise function of PERP in eliciting an apoptotic response remains unknown, initial reports indicate that PERP expression causes nuclear localization of p53 and increases the level of transcriptionally active p53 protein. […] Including increased protein stability, postranslational modifications, and enhanced nuclear accumulation. […]

In assay [5] the target is T1, PERP (Homo sapiens, UniProt Q96FX8).
T1 construct: host or cells: yeast (split-ubiquitin two-hybrid system)
T1 sequence (Q96FX8 whole entry): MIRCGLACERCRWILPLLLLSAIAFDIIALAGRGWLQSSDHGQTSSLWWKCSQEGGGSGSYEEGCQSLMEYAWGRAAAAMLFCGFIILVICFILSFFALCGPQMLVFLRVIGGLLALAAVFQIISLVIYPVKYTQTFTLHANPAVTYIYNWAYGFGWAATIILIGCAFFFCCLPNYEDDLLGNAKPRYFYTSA
Put plainly: Split-ubiquitin yeast-two hybrid analysis with full length SipA as bait. It is filed as binding. The conditions noted are these: human cancer colon mRNA-based library as prey; epithelial surfaces.
Source text: as §5

Assay [6] relates to P-gp. The assay can be described thus: P-gp expression in MCF-7 breast adenocarcinoma cells, Western blot. It is filed as cell-based, human. The conditions noted are these: MCF-7 cells, 80 or 160 μg/ml purified SipA, 3 h, compared to buffer control. On the procedure: as §3, §2, §4
Sequence of P-gp (P08183 whole entry): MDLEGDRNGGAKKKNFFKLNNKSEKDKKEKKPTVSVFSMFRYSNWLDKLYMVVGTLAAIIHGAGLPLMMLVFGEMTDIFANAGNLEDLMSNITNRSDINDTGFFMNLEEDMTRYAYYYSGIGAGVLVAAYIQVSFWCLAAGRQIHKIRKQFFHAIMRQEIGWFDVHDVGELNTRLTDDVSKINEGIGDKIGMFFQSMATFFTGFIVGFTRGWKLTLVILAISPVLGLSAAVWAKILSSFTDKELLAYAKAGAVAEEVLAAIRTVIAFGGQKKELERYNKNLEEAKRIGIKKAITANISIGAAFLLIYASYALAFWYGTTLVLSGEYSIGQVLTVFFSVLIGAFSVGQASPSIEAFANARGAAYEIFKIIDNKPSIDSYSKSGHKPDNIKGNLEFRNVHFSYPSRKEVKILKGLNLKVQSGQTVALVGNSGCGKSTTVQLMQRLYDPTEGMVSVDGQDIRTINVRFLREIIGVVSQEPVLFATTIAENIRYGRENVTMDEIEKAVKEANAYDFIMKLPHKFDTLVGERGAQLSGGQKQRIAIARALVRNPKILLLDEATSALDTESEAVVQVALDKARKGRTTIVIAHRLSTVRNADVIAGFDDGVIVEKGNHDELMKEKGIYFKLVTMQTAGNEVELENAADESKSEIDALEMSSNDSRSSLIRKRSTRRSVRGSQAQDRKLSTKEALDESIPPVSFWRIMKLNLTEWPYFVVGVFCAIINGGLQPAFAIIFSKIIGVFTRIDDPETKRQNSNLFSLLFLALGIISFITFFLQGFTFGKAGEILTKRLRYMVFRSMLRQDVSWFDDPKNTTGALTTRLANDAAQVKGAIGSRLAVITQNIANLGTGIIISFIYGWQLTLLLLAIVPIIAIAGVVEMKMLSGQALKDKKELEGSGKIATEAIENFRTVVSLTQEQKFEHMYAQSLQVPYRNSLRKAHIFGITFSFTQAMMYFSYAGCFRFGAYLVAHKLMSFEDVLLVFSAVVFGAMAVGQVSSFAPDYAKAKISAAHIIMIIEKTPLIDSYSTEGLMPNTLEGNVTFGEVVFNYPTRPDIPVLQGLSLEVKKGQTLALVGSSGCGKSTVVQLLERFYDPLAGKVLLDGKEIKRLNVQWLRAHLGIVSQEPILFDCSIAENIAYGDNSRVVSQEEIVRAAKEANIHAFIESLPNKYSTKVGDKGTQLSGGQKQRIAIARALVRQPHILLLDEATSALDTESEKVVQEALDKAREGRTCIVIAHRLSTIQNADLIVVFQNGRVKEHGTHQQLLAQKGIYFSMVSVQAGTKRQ
Assay [7] relates to P-gp. Put plainly: Colonic P-gp expression in mice colonized with S. Typhimurium strains. Format: in vivo, Balb/c mice. The conditions noted are these: SipA over-expressing strain (AJK63) vs isogenic SipA mutant strain (EE633), proximal colon, 48 hours.
Source text: as §1, with “Whole cell lysates were normalized for protein levels and probed for P-gp.” left out, “cart.” for “cart. Densitometry was performed using ImageJ and results are presented as relative to the untreated cells.”
Since normal healthy intestinal epithelium display baseline expression of P-gp, the inventors evaluated the colonic expression of P-gp in mice colonized with a S. Typhimurium strain that over-expresses SipA (AJK63) compared to mice colonized with an equivalent amount of an isogenic SipA mutant strain (EE633). […]

As to `COc1cccc2c1C(=O)c1c(O)c3c(c(O)c1C2=O)C[C@@](O)(C(=O)CO)C[C@@H]3O[C@H]1C[C@H](N)[C@H](O)[C@H](C)O1` [doxorubicin], in assay [1], the “effect on tumor size” value is “minimal effect on tumor size”.

For lipopolysaccharide [reference compound], the “modulation of P-gp by lipopolysaccharide” value in assay [2] (HCT8, purified LPS from S. typhimurium 0.1 to 100 μg/ml, 3 h) is on record as “not attributed to trace amounts of lipopolysaccharide”.

Consider “SipA: Salmonella Typhimurium type III secreted effector protein, SEQ ID NO:01; purified as SipA-HA fusion protein”, for which the entries for the “reduction of P-gp expression” value in assay [3] and in assay [6] were 95% and 40%, respectively. Besides, in assay [4], the PERP protein expression entry was “up-regulates the protein expression of PERP”. Besides, in assay [5], the “interaction with PERP” value is “bind to PERP at epithelial surfaces”. The “modulation of P-gp expression” value in assay [2] (HCT8 monolayers, 80 μg/ml or 160 μg/ml purified SipA-HA, 3 hours) is reported as “dose dependent ability to modulate P-gp to the same degree as wild-type S. Typhimurium”. Moreover, the “expression of P-gp in healthy murine intestinal epithelium” value in assay [7] is “could modulate the expression of P-gp in healthy murine intestinal epithelium in vivo”.
